Reference: patent US11939290B2, “Heterocycle-containing amino acid compound and salt thereof, complex, composition, fertilizer and plant growth regulator” (TOKUSHIMA UNIVERSITY, priority 2018, dated 2024)

Test: Stability test in acidic aqueous solution (1H NMR residual rate)
Assay type: physicochemical
Conditions: for residual rate, lapsed day 0 / residual rate, lapsed day 10 / residual rate, lapsed day 20 / residual rate, lapsed day 27: acidic aqueous solution in heavy water; for residual rate, lapsed day 0: pH 2.0, 0 day (immediately after preparation); for residual rate, lapsed day 10 / residual rate, lapsed day 20 / residual rate, lapsed day 27: pH 2.0, stored at 25° C. sealed, protected from light; for residual rate, lapsed day 10: 10 days; for residual rate, lapsed day 20: 20 days; for residual rate, lapsed day 27 / stability in an acidic aqueous solution compared with derivatives (X), (X′) and (Y): 27 days; for stability in an acidic aqueous solution compared with derivatives (X), (X′) and (Y): acidic aqueous solution pH 2, 25° C.
Experimental: In this stability test, whether acidic aqueous solutions prepared using the derivatives (X), (X′) and (Y), and 2′-deoxymugineic acid (DMA) and a compound having the following structure (hereinafter, referred to as “PDMA”) were stable along with the lapse of time, i.e., whether the derivatives were difficult to decompose was evaluated.
The following test solutions (a), (b) and (c) were prepared using the derivatives (X), (X′) and (Y). Also, the following test solutions (d) and (e) were prepared using DMA and PDMA. The test solution (a) was prepared by dissolving 3 μmol of the substance in 0.5 mL of heavy water. Other test solutions were prepared by dissolving 0.03 mmol of the substance in 0.5 mL of heavy water. The pH of the test solution was 2. • Test solution (a) for Test Example 1: acidic aqueous solution of the derivative (X) • Test solution (b) for Test Example 2: acidic aqueous solution of the derivative (X′) • Test solution (c) for Test Example 3: acidic aqueous solution of the derivative (Y) • Test solution (d) for Referential Example 1: acidic aqueous solution of DMA • Test solution (e) for Referential Example 2: acidic aqueous solution of PDMA
An NMR measuring tube (manufactured by Kanto Chemical Co., Inc., φ5 mm×7 inch) was filled with each of the test solutions (a) to (e), and ^1H NMR measurement was performed. ^1H NMR was measured immediately after (0 day), 10 days after, 20 days after, and 27 days after the preparation of the test solution. The test solutions were stored at room temperature (25° C.) in a sealed state in which they were placed in the NMR measuring tubes, while being protected from light.
Attention was paid to 4.4 ppm (1H, q) for DMA, 4.4 ppm (1H, q) for PDMA, 4.3 ppm (1H, dd) for the derivative (X), 4.3 ppm (1H, dd) for the derivative (X′), and 4.3 ppm (1H, dd) for the derivative (Y) in the resulting ^1H NMR spectrum. […] On the other hand, in the case of the test solutions (d) and (e), peaks derived from decomposition products of DMA and PDMA were detected with the lapse of the storage time. The chemical shifts of the peaks were 4.5 ppm (t, 1H) for DMA and 4.5 ppm (1H, t) for PDMA. Thus, from the integrated values, the residual rate of DMA or PDMA after 10, 20, and 27 days was calculated based on the following calculation formula (see Table 1 and FIG. 1):
(Integrated value of measured compound)/{(integrated value of measured compound)+(integrated value of decomposition product)}×100

| Structure (SMILES) | residual rate, lapsed day 0 | residual rate, lapsed day 10 | residual rate, lapsed day 20 | residual rate, lapsed day 27 | stability in an acidic aqueous solution compared with derivatives (X), (X′) and (Y) |
| --- | --- | --- | --- | --- | --- |
| O=C(O)C(O)CCNC(CCN1CCC1C(=O)O)C(=O)O (stereo not shown) [DMA, 2′-deoxymugineic acid] | 100% | 77.3% | 68.2% | 59.3% | inferior |
| O=C(O)C(O)CCNC(CCN1CCCC1C(=O)O)C(=O)O (stereo not shown) [PDMA] | 100% | 68.4% | 61.7% | 55.2% | inferior |
